Assay results reported in ChEMBL document CHEMBL3877316, “Synthesis of pharmacologically important naphthoquinones and anticancer activity of 2-benzyllawsone through DNA topoisomerase-II inhibition” (Bioorg Med Chem, 2017).
Calls of active or inactive are those of the source. The rule behind the calls is not given here.

Tests used:
Mus musculus [1] = assay: Acute toxicity in Swiss albino mouse assessed as serum SGPT level at 50 mg/kg, po qd administered as single dose for 7 days (reference value: 23.06 +/- 1.92 U/L); format: organism-based; details: in vivo, 168 h
Mus musculus [2] = assay: Acute toxicity in Swiss albino mouse assessed as serum protein level at 300 mg/kg, po qd administered as single dose for 7 days (reference value: 2.91 +/- 0.31 mg/ml); format: organism-based; details: in vivo, 168 h
Mus musculus [3] = assay: Acute toxicity in Swiss albino mouse assessed as changes in absolute weight of heart up to 1000 mg/kg, po qd administered as single dose for 7 days; format: organism-based; details: in vivo, 168 h
Mus musculus [4] = assay: Acute toxicity in Swiss albino mouse assessed as changes in relative weight of heart up to 1000 mg/kg, po qd administered as single dose for 7 days; format: organism-based; details: in vivo, 168 h
Mus musculus [5] = assay: Acute toxicity in Swiss albino mouse assessed as serum ALP level at 5 mg/kg, po qd administered as single dose for 7 days (reference value: 292.13 +/- 40.29 U/L); format: organism-based; details: in vivo, 168 h
Mus musculus [6] = assay: Acute toxicity in Swiss albino mouse assessed as serum albumin level at 5 mg/kg, po qd administered as single dose for 7 days (reference value: 2.49 +/- 0.17 g/dl); format: organism-based; details: in vivo, 168 h
Mus musculus [7] = assay: Acute toxicity in Swiss albino mouse assessed as changes in relative weight of liver up to 1000 mg/kg, po qd administered as single dose for 7 days; format: organism-based; details: in vivo, 168 h
Mus musculus [8] = assay: Acute toxicity in Swiss albino mouse assessed as serum protein level at 50 mg/kg, po qd administered as single dose for 7 days (reference value: 2.91 +/- 0.31 mg/ml); format: organism-based; details: in vivo, 168 h
FaDu [9] = assay: Inhibition of topoisomerase-2 in human FADU cells at 2 times antiproliferative IC50 after 24 hrs by ELISA relative to control; format: cell-based
[10] = Cell cycle arrest in human FADU cells assessed as accumulation at S phase at 2.5 to 10 uM by propidium iodide staining based flow cytometry; format: functional
Mus musculus [11] = assay: Acute toxicity in Swiss albino mouse assessed as changes in relative weight of spleen up to 1000 mg/kg, po qd administered as single dose for 7 days; format: organism-based; details: in vivo, 168 h
Mus musculus [12] = assay: Acute toxicity in Swiss albino mouse assessed as serum WBC level at 300 mg/kg, po qd administered as single dose for 7 days (reference value: 8.64 +/- 0.42 10^3/mm3); format: organism-based; details: in vivo, 168 h
Mus musculus [13] = assay: Acute toxicity in Swiss albino mouse assessed as changes in relative weight of brain up to 1000 mg/kg, po qd administered as single dose for 7 days; format: organism-based; details: in vivo, 168 h
Mus musculus [14] = assay: Acute toxicity in Swiss albino mouse assessed as changes in posture up to 1000 mg/kg, po qd administered as single dose for 7 days; format: organism-based; details: in vivo, 168 h
Mus musculus [15] = assay: Acute toxicity in Swiss albino mouse assessed as serum WBC level at 50 mg/kg, po qd administered as single dose for 7 days (reference value: 8.64 +/- 0.42 10^3/mm3); format: organism-based; details: in vivo, 168 h
Mus musculus [16] = assay: Acute toxicity in Swiss albino mouse assessed as serum haemoglobin level at 5 mg/kg, po qd administered as single dose for 7 days (reference value: 13.29 +/- 0.46 g/dl); format: organism-based; details: in vivo, 168 h
Mus musculus [17] = assay: Acute toxicity in Swiss albino mouse assessed as serum creatinine level at 1000 mg/kg, po qd administered as single dose for 7 days (reference value: 0.09 +/- 0.01 mg/dl); format: organism-based; details: in vivo, 168 h
Mus musculus [18] = assay: Acute toxicity in Swiss albino mouse assessed as serum albumin level at 300 mg/kg, po qd administered as single dose for 7 days (reference value: 2.49 +/- 0.17 g/dl); format: organism-based; details: in vivo, 168 h
Mus musculus [19] = assay: Acute toxicity in Swiss albino mouse assessed as body weight at 300 mg/kg, po qd administered as single dose for 7 days (reference value: 27.73 +/- 0.94 g); format: organism-based; details: in vivo, 168 h
Mus musculus [20] = assay: Acute toxicity in Swiss albino mouse assessed as changes in relative weight of kidney up to 1000 mg/kg, po qd administered as single dose for 7 days; format: organism-based; details: in vivo, 168 h
[21] = Antiproliferative activity against human DLD1 cells after 48 hrs by SRB assay; format: functional, cell-based; details: DLD-1, 48 h
[22] = Antiproliferative activity against human FADU cells after 48 hrs by SRB assay; format: functional, cell-based
Mus musculus [23] = assay: Acute toxicity in Swiss albino mouse assessed as serum creatinine level at 5 mg/kg, po qd administered as single dose for 7 days (reference value: 0.09 +/- 0.01 mg/dl); format: organism-based; details: in vivo, 168 h
Mus musculus [24] = assay: Acute toxicity in Swiss albino mouse assessed as serum RBC level at 1000 mg/kg, po qd administered as single dose for 7 days (reference value: 9.07 +/- 1.13 million/mm3); format: organism-based; details: in vivo, 168 h
FaDu [25] = assay: Induction of apoptosis in human FADU cells assessed as increase in PARP cleavage at 5 to 10 uM by Western blot method; format: functional, cell-based
[26] = Antiproliferative activity against human MCF7 cells after 48 hrs by SRB assay; format: functional, cell-based; details: MCF7, 48 h
Mus musculus [27] = assay: Acute toxicity in Swiss albino mouse assessed as serum SGOT level at 5 mg/kg, po qd administered as single dose for 7 days (reference value: 34.32 +/- 3.78 U/L); format: organism-based; details: in vivo, 168 h
Mus musculus [28] = assay: Acute toxicity in Swiss albino mouse assessed as body weight at 50 mg/kg, po qd administered as single dose for 7 days (reference value: 27.73 +/- 0.94 g); format: organism-based; details: in vivo, 168 h
Mus musculus [29] = assay: Acute toxicity in Swiss albino mouse assessed as serum triglycerides level at 300 mg/kg, po qd administered as single dose for 7 days (reference value: 107.9 +/- 10.7 mg/dl); format: organism-based; details: in vivo, 168 h
Mus musculus [30] = assay: Acute toxicity in Swiss albino mouse assessed as serum protein level at 1000 mg/kg, po qd administered as single dose for 7 days (reference value: 2.91 +/- 0.31 mg/ml); format: organism-based; details: in vivo, 168 h
Mus musculus [31] = assay: Acute toxicity in Swiss albino mouse assessed as serum cholesterol level at 300 mg/kg, po qd administered as single dose for 7 days (reference value: 68.37 +/- 4.42 mg/dl); format: organism-based; details: in vivo, 168 h
Mus musculus [32] = assay: Acute toxicity in Swiss albino mouse assessed as serum triglycerides level at 50 mg/kg, po qd administered as single dose for 7 days (reference value: 107.9 +/- 10.7 mg/dl); format: organism-based; details: in vivo, 168 h
Mus musculus [33] = assay: Acute toxicity in Swiss albino mouse assessed as changes in absolute weight of brain up to 1000 mg/kg, po qd administered as single dose for 7 days; format: organism-based; details: in vivo, 168 h
Mus musculus [34] = assay: Acute toxicity in Swiss albino mouse assessed as effect on lymphocyte count up to 1000 mg/kg, po qd administered as single dose for 7 days; format: organism-based; details: in vivo, 168 h
Mus musculus [35] = assay: Acute toxicity in Swiss albino mouse assessed as changes in gait up to 1000 mg/kg, po qd administered as single dose for 7 days; format: organism-based; details: in vivo, 168 h
Mus musculus [36] = assay: Acute toxicity in Swiss albino mouse assessed as effect on basophil count up to 1000 mg/kg, po qd administered as single dose for 7 days; format: organism-based; details: in vivo, 168 h
Mus musculus [37] = assay: Acute toxicity in Swiss albino mouse assessed as serum cholesterol level at 50 mg/kg, po qd administered as single dose for 7 days (reference value: 68.37 +/- 4.42 mg/dl); format: organism-based; details: in vivo, 168 h

O=C1C=C(OCc2ccccc2)C(=O)c2ccccc21
Activity (Mus musculus [1]): 18.02 U/L | Activity (Mus musculus [2]): 2.43 mg/mL | Activity (Mus musculus [3]): Non-Toxic | Activity (Mus musculus [4]): Non-Toxic | Activity (Mus musculus [5]): 307.74 U/L | Activity (Mus musculus [6]): 2.56 g/dL | Activity (Mus musculus [7]): Non-Toxic | Activity (Mus musculus [8]): 2.92 mg/mL | inhibition (FaDu [9]): 36.6% | Activity [10]: Active | Activity (Mus musculus [11]): Non-Toxic | Activity (Mus musculus [12]): 8.52 ×10³ /mm3 | Activity (Mus musculus [13]): Non-Toxic | Activity (Mus musculus [14]): Non-Toxic | Activity (Mus musculus [15]): 8.38 ×10³ /mm3 | Activity (Mus musculus [16]): 12.65 g/dL | Activity (Mus musculus [17]): 0.16 mg/dL | Activity (Mus musculus [18]): 2.92 g/dL | Activity (Mus musculus [19]): 27.09 g | Activity (Mus musculus [20]): Non-Toxic | IC50 [21]: 16.2 µM | IC50 [22]: 5.27 µM | Activity (Mus musculus [23]): 0.14 mg/dL | Activity (Mus musculus [24]): 8.89 million/mm3 | Activity (FaDu [25]): Active | IC50 [26]: 13.9 µM | Activity (Mus musculus [27]): 38.3 U/L | Activity (Mus musculus [28]): 26.76 g | Activity (Mus musculus [29]): 119.3 mg/dL | Activity (Mus musculus [30]): 2.95 mg/mL | Activity (Mus musculus [31]): 45.62 mg/dL | Activity (Mus musculus [32]): 112.9 mg/dL | Activity (Mus musculus [33]): Non-Toxic | Activity (Mus musculus [34]): Non-Toxic | Activity (Mus musculus [35]): Non-Toxic | Activity (Mus musculus [36]): Non-Toxic | Activity (Mus musculus [37]): 65.13 mg/dL
